Test system: 171881-019-R-J1-PDC tumor spheroids, viability
Assay: Anticancer human tumor 171881-019-R-J1-PDC patient-derived invasive breast carcinoma cell line growth inhibition [GQUAD]
Conditions: spheroids with HUVEC and MSC; for IC50: curve of first compound; for viability, T/C: stronger effect = lower value
In short: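 Tumor cells were grown as complex spheroids with HUVEC endothelial cells and mesenchymal stem cells as stroma. G-quadruplex stabilizers were combined with targeted agents over half-log dilutions from near the clinical Cmax, or from 10 microM.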

[1] = second compound 0.0316 µM, first compound 0.0316 µM
[2] = second compound 0.0316 µM, first compound 0.316 µM
[3] = second compound 0.1 µM, first compound 0.0316 µM
[4] = second compound 0.1 µM, first compound 0.316 µM
[5] = second compound 0.316 µM, first compound 0.0316 µM
[6] = second compound 0.316 µM, first compound 0.316 µM
[7] = second compound 1 µM, first compound 0.0316 µM
[8] = second compound 1 µM, first compound 0.316 µM
[9] = second compound 3.16 µM, first compound 0.0316 µM
[10] = second compound 3.16 µM, first compound 0.316 µM
[11] = second compound 10 µM, first compound 0.0316 µM
[12] = second compound 10 µM, first compound 0.316 µM
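Also: spheroids exposed to compounds for 7 days.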
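For viability, T/C in this document: 100% = DMSO vehicle control viability.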

C=CC(=O)N1CCN(c2nc(=O)n(-c3c(C)ccnc3C(C)C)c3nc(-c4c(O)cccc4F)c(F)cc23)C(C)C1 (centres undefined) + CN(C)c1ccc(Nc2c3ccc(NC(=O)CCN4CCCC4)cc3nc3cc(NC(=O)CCN4CCCC4)ccc23)cc1 showed an IC50 (second compound 0.0316 µM) greater than 10000 nM, an IC50 (second compound 0.1 µM) greater than 10000 nM and an IC50 (second compound 0.316 µM) of 7360 nM. It also gave an IC50 (second compound 1 µM) of less than 31.6 nM, an IC50 (second compound 3.16 µM) of less than 31.6 nM and an IC50 (second compound 10 µM) of less than 31.6 nM. It also gave a viability, T/C [1] of 98.3%, a viability, T/C (second compound 0.0316 µM, first compound 0.1 µM) of 104% and a viability, T/C [2] of 102%. For the same molecule, the viability, T/C (second compound 0.0316 µM, first compound 1 µM) was 117%, the viability, T/C (second compound 0.0316 µM, first compound 3.16 µM) was 99.3% and the viability, T/C (second compound 0.0316 µM, first compound 10 µM) was 53.5%. It also gave a viability, T/C [3] of 94.8%, a viability, T/C (second compound 0.1 µM, first compound 0.1 µM) of 115% and a viability, T/C [4] of 111%. It also gave a viability, T/C (second compound 0.1 µM, first compound 1 µM) of 119%, a viability, T/C (second compound 0.1 µM, first compound 3.16 µM) of 96.9% and a viability, T/C (second compound 0.1 µM, first compound 10 µM) of 59.3%. The viability, T/C [5] was 79.3%, the viability, T/C (second compound 0.316 µM, first compound 0.1 µM) was 75.8% and the viability, T/C [6] was 69.8%. It also gave a viability, T/C (second compound 0.316 µM, first compound 1 µM) of 70%, a viability, T/C (second compound 0.316 µM, first compound 3.16 µM) of 70.6% and a viability, T/C (second compound 0.316 µM, first compound 10 µM) of 42.9%. For the same molecule, the viability, T/C [7] was 19%, the viability, T/C (second compound 1 µM, first compound 0.1 µM) was 16% and the viability, T/C [8] was 18.6%. It also gave a viability, T/C (second compound 1 µM, first compound 1 µM) of 17.1%, a viability, T/C (second compound 1 µM, first compound 3.16 µM) of 15.3% and a viability, T/C (second compound 1 µM, first compound 10 µM) of 10.2%. The viability, T/C [9] was 1.61%, the viability, T/C (second compound 3.16 µM, first compound 0.1 µM) was 1.65% and the viability, T/C [10] was 1.29%. For the same molecule, the viability, T/C (second compound 3.16 µM, first compound 1 µM) was 1.13%, the viability, T/C (second compound 3.16 µM, first compound 3.16 µM) was 2.03% and the viability, T/C (second compound 3.16 µM, first compound 10 µM) was 1.73%. For the same molecule, the viability, T/C [11] was 0.27%, the viability, T/C (second compound 10 µM, first compound 0.1 µM) was 0.5% and the viability, T/C [12] was 0.42%. For the same molecule, the viability, T/C (second compound 10 µM, first compound 1 µM) was 0.9%, the viability, T/C (second compound 10 µM, first compound 3.16 µM) was 0.45% and the viability, T/C (second compound 10 µM, first compound 10 µM) was 0.56%.
CC[C@@]1(O)C(=O)OCc2c1cc1n(c2=O)Cc2cc3c(CN(C)C)c(O)ccc3nc2-1 + CN(C)c1ccc(Nc2c3ccc(NC(=O)CCN4CCCC4)cc3nc3cc(NC(=O)CCN4CCCC4)ccc23)cc1 was tested, and the IC50 (second compound 0.0316 µM) was 255 nM, the IC50 (second compound 0.1 µM) was 251 nM and the IC50 (second compound 0.316 µM) was 189 nM. The IC50 (second compound 1 µM) was less than 0.999 nM, the IC50 (second compound 3.16 µM) was less than 0.999 nM and the IC50 (second compound 10 µM) was less than 0.999 nM. It also gave a viability, T/C (second compound 0.0316 µM, first compound 0.000999 µM) of 110%, a viability, T/C (second compound 0.0316 µM, first compound 0.00316 µM) of 108% and a viability, T/C (second compound 0.0316 µM, first compound 0.00999 µM) of 105%. It also gave a viability, T/C [1] of 99.5%, a viability, T/C (second compound 0.0316 µM, first compound 0.0999 µM) of 57.8% and a viability, T/C [2] of 48.3%. The viability, T/C (second compound 0.1 µM, first compound 0.000999 µM) was 110%, the viability, T/C (second compound 0.1 µM, first compound 0.00316 µM) was 112% and the viability, T/C (second compound 0.1 µM, first compound 0.00999 µM) was 93.9%. It also gave a viability, T/C [3] of 115%, a viability, T/C (second compound 0.1 µM, first compound 0.0999 µM) of 61.9% and a viability, T/C [4] of 47%. It also gave a viability, T/C (second compound 0.316 µM, first compound 0.000999 µM) of 85%, a viability, T/C (second compound 0.316 µM, first compound 0.00316 µM) of 85.3% and a viability, T/C (second compound 0.316 µM, first compound 0.00999 µM) of 63.3%. For the same molecule, the viability, T/C [5] was 70.7%, the viability, T/C (second compound 0.316 µM, first compound 0.0999 µM) was 60.6% and the viability, T/C [6] was 42.4%. The viability, T/C (second compound 1 µM, first compound 0.000999 µM) was 23.9%, the viability, T/C (second compound 1 µM, first compound 0.00316 µM) was 14.9% and the viability, T/C (second compound 1 µM, first compound 0.00999 µM) was 17.4%. The viability, T/C [7] was 11.6%, the viability, T/C (second compound 1 µM, first compound 0.0999 µM) was 10.3% and the viability, T/C [8] was 14.4%. For the same molecule, the viability, T/C (second compound 3.16 µM, first compound 0.000999 µM) was 2.23%, the viability, T/C (second compound 3.16 µM, first compound 0.00316 µM) was 1.91% and the viability, T/C (second compound 3.16 µM, first compound 0.00999 µM) was 2.49%. The viability, T/C [9] was 1.45%, the viability, T/C (second compound 3.16 µM, first compound 0.0999 µM) was 2.03% and the viability, T/C [10] was 1.84%. For the same molecule, the viability, T/C (second compound 10 µM, first compound 0.000999 µM) was 0.21%, the viability, T/C (second compound 10 µM, first compound 0.00316 µM) was 1.05% and the viability, T/C (second compound 10 µM, first compound 0.00999 µM) was 0.53%. For the same molecule, the viability, T/C [11] was 0.24%, the viability, T/C (second compound 10 µM, first compound 0.0999 µM) was 0.6% and the viability, T/C [12] was 0.58%.
